Data published in the NIST ThermoML archive (doi:10.1016/j.jct.2010.09.008).
Numbers after ± are expanded uncertainties.

Columns and labels:
[1] = relative permittivity at zero frequency (dimensionless); xn = mol fraction of the nth substance listed; conditions: 101.3 kPa, Liquid, AC Method
[2] = xn = mol fraction of the nth substance listed; conditions: 101.3 kPa, Liquid, Vibrating tube method
[3] = 101.33 kPa, Liquid, Vibrating tube method
[4] = relative permittivity at zero frequency (dimensionless); conditions: 101.33 kPa, Liquid, AC method

COCCOCCOC [2,5,8-trioxanonane] + CCCCCCC
relative permittivity at zero frequency ([1]; 288.15 K, x2 = 0.0492): 7.25 ± 0.15 | relative permittivity at zero frequency ([1]; 288.15 K, x2 = 0.0982): 6.84 ± 0.14 | relative permittivity at zero frequency ([1]; 288.15 K, x2 = 0.1991): 6.04 ± 0.12 | relative permittivity at zero frequency ([1]; 288.15 K, x2 = 0.3006): 5.3 ± 0.11 | relative permittivity at zero frequency ([1]; 288.15 K, x2 = 0.398): 4.65 ± 0.09 | relative permittivity at zero frequency ([1]; 288.15 K, x2 = 0.4977): 4.05 ± 0.08 | relative permittivity at zero frequency ([1]; 288.15 K, x2 = 0.5854): 3.58 ± 0.07 | relative permittivity at zero frequency ([1]; 288.15 K, x2 = 0.7026): 3.02 ± 0.06 | relative permittivity at zero frequency ([1]; 288.15 K, x2 = 0.801): 2.61 ± 0.05 | relative permittivity at zero frequency ([1]; 288.15 K, x2 = 0.8927): 2.28 ± 0.05 | relative permittivity at zero frequency ([1]; 288.15 K, x2 = 0.9408): 2.12 ± 0.04 | relative permittivity at zero frequency ([1]; 298.15 K, x2 = 0.0494): 6.98 ± 0.14 | relative permittivity at zero frequency ([1]; 298.15 K, x2 = 0.0988): 6.59 ± 0.13 | relative permittivity at zero frequency ([1]; 298.15 K, x2 = 0.1956): 5.85 ± 0.12 | relative permittivity at zero frequency ([1]; 298.15 K, x2 = 0.303): 5.11 ± 0.1 | relative permittivity at zero frequency ([1]; 298.15 K, x2 = 0.3959): 4.52 ± 0.09 | relative permittivity at zero frequency ([1]; 298.15 K, x2 = 0.4948): 3.96 ± 0.08 | relative permittivity at zero frequency ([1]; 298.15 K, x2 = 0.6028): 3.4 ± 0.07 | relative permittivity at zero frequency ([1]; 298.15 K, x2 = 0.7018): 2.95 ± 0.06 | relative permittivity at zero frequency ([1]; 298.15 K, x2 = 0.7937): 2.59 ± 0.05 | relative permittivity at zero frequency ([1]; 298.15 K, x2 = 0.891): 2.25 ± 0.05 | relative permittivity at zero frequency ([1]; 298.15 K, x2 = 0.9419): 2.09 ± 0.04 | relative permittivity at zero frequency ([1]; 308.15 K, x2 = 0.0494): 6.73 ± 0.13 | relative permittivity at zero frequency ([1]; 308.15 K, x2 = 0.0981): 6.35 ± 0.13 | relative permittivity at zero frequency ([1]; 308.15 K, x2 = 0.1993): 5.62 ± 0.11 | relative permittivity at zero frequency ([1]; 308.15 K, x2 = 0.3025): 4.94 ± 0.1 | relative permittivity at zero frequency ([1]; 308.15 K, x2 = 0.3951): 4.39 ± 0.09 | relative permittivity at zero frequency ([1]; 308.15 K, x2 = 0.4936): 3.86 ± 0.08 | relative permittivity at zero frequency ([1]; 308.15 K, x2 = 0.5951): 3.36 ± 0.07 | relative permittivity at zero frequency ([1]; 308.15 K, x2 = 0.7021): 2.89 ± 0.06 | relative permittivity at zero frequency ([1]; 308.15 K, x2 = 0.7993): 2.53 ± 0.05 | relative permittivity at zero frequency ([1]; 308.15 K, x2 = 0.8953): 2.21 ± 0.04 | relative permittivity at zero frequency ([1]; 308.15 K, x2 = 0.9472): 2.06 ± 0.04 | mass density ([2]; 288.15 K, x2 = 0.0482): 935.46 ± 0.23 kg/m3 | mass density ([2]; 288.15 K, x2 = 0.0986): 921.11 ± 0.24 kg/m3 | mass density ([2]; 288.15 K, x2 = 0.1969): 893.54 ± 0.24 kg/m3 | mass density ([2]; 288.15 K, x2 = 0.3042): 864.14 ± 0.25 kg/m3 | mass density ([2]; 288.15 K, x2 = 0.4054): 836.87 ± 0.26 kg/m3 | mass density ([2]; 288.15 K, x2 = 0.5047): 810.62 ± 0.27 kg/m3 | mass density ([2]; 288.15 K, x2 = 0.6049): 784.64 ± 0.27 kg/m3 | mass density ([2]; 288.15 K, x2 = 0.6982): 760.9 ± 0.28 kg/m3 | mass density ([2]; 288.15 K, x2 = 0.788): 738.48 ± 0.29 kg/m3 | mass density ([2]; 288.15 K, x2 = 0.8899): 713.78 ± 0.3 kg/m3 | mass density ([2]; 288.15 K, x2 = 0.9452): 700.73 ± 0.3 kg/m3 | mass density ([2]; 298.15 K, x2 = 0.0484): 925.56 ± 0.23 kg/m3 | mass density ([2]; 298.15 K, x2 = 0.1001): 910.8 ± 0.24 kg/m3 | mass density ([2]; 298.15 K, x2 = 0.1957): 884.11 ± 0.24 kg/m3 | mass density ([2]; 298.15 K, x2 = 0.2887): 858.66 ± 0.25 kg/m3 | mass density ([2]; 298.15 K, x2 = 0.4049): 827.49 ± 0.26 kg/m3 | mass density ([2]; 298.15 K, x2 = 0.4975): 803.13 ± 0.27 kg/m3 | mass density ([2]; 298.15 K, x2 = 0.5939): 778.25 ± 0.27 kg/m3 | mass density ([2]; 298.15 K, x2 = 0.6925): 753.3 ± 0.28 kg/m3 | mass density ([2]; 298.15 K, x2 = 0.7931): 728.38 ± 0.29 kg/m3 | mass density ([2]; 298.15 K, x2 = 0.8988): 703 ± 0.3 kg/m3 | mass density ([2]; 298.15 K, x2 = 0.9481): 691.49 ± 0.3 kg/m3 | mass density ([2]; 308.15 K, x2 = 0.0482): 915.56 ± 0.23 kg/m3 | mass density ([2]; 308.15 K, x2 = 0.098): 901.53 ± 0.24 kg/m3 | mass density ([2]; 308.15 K, x2 = 0.1961): 874.29 ± 0.24 kg/m3 | mass density ([2]; 308.15 K, x2 = 0.3036): 845.06 ± 0.25 kg/m3 | mass density ([2]; 308.15 K, x2 = 0.3981): 819.81 ± 0.26 kg/m3 | mass density ([2]; 308.15 K, x2 = 0.4994): 793.28 ± 0.27 kg/m3 | mass density ([2]; 308.15 K, x2 = 0.599): 767.73 ± 0.28 kg/m3 | mass density ([2]; 308.15 K, x2 = 0.6963): 743.26 ± 0.28 kg/m3 | mass density ([2]; 308.15 K, x2 = 0.7844): 721.56 ± 0.29 kg/m3 | mass density ([2]; 308.15 K, x2 = 0.8841): 697.7 ± 0.3 kg/m3 | mass density ([2]; 308.15 K, x2 = 0.9372): 685.34 ± 0.3 kg/m3 | mass density ([2]; 308.15 K, x2 = 0.9738): 676.94 ± 0.31 kg/m3

CCCCCCC [heptane]
mass density ([3]; 288.15 K): 688.03 ± 0.3 kg/m3 | mass density ([3]; 298.15 K): 679.58 ± 0.31 kg/m3 | mass density ([3]; 308.15 K): 671.03 ± 0.31 kg/m3 | relative permittivity at zero frequency ([4]; 288.15 K): 1.94 ± 0.04 | relative permittivity at zero frequency ([4]; 298.15 K): 1.93 ± 0.04 | relative permittivity at zero frequency ([4]; 308.15 K): 1.92 ± 0.04
